Reference: patent publication US9365574B2, “Soluble guanylate cyclase activators” (Merck Sharp & Dohme Corp., priority 2010, dated 2016)

What follows are compounds tested on Spontaneously hypertensive rats (SHR) (assay: Acute Efficacy in Spontaneously Hypertensive Rats (SHR), telemetry blood pressure). Conditions: dose 0.3 mpk.
Type: in vivo, rat
Summary of the method: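 Male SHR with aortic telemetry catheters, 14-day recovery, conscious and freely moving; single oral gavage in 10% transcutol/20% Cremophor/70% water. BP sampled 30 s every 10 min, hourly averages minus prior-day vehicle baseline; value is maximum peak SBP decrease at stated mg/kg PO dose.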

SMILES | Maximum SBP reduction [mmHg]
CC1(c2cn(CC3CC3)nn2)C(=O)Nc2nc(-c3nn(CCC(F)(F)F)c4ncccc34)nc(N)c21 (stereo not shown) [Example 180, 4-Amino-5-[1-(Cyclopropylmethyl)-1H-1,2,3-Triazol-4-yl]-5-Methyl-2-[1-(3,3,3-Trifluoropropyl)-1H-Pyrazolo[3,4-B]Pyridin-3-yl]-5,7-Dihydro-6H-Pyrrolo[2,3-D]Pyrimidin-6-One] | 18 ± 5
CC1(C(N)=O)C(=O)Nc2nc(-c3nn(CCC(F)(F)C(F)(F)F)c4cc(Cl)ccc34)nc(N)c21 (single isomer, unassigned) [Example 159, 4-Amino-2-[6-Chloro-1-(3,3,4,4,4-Pentafluorobutyl)-1H-Indazol-3-yl]-5-Methyl-6-Oxo-6,7-Dihydro-5H-Pyrrolo[2,3-D]Pyrimidine-5-Carboxamide] | 38 ± 6
CC1(C(=O)NC2CC2)C(=O)Nc2nc(-c3nn(CCC(F)(F)F)c4ncccc34)nc(N)c21 (stereo not shown) [Example 181, 4-Amino-N-Cyclopropyl-5-Methyl-6-Oxo-2-[1-(3,3,3-Trifluoropropyl)-1H-Pyrazolo[3,4-B]Pyridin-3-yl]-6,7-Dihydro-5H-Pyrrolo[2,3-D]Pyrimidine-5-Carboxamide] | 49 ± 2

Same assay, conditions: single oral dose 0.1 mpk P.O.

SMILES | Maximum peak decrease of systolic blood pressure (SBP) in SHR, Category
CC1(C(=O)NC2CC2)C(=O)Nc2nc(-c3nn(CCC(F)(F)C(F)(F)F)c4nc(Cl)ccc34)nc(N)c21 (stereo not shown) [Example 176, 4-Amino-2-(6-Chloro-1-(3,3,4,4,4-Pentafluorobutyl)-1H-Pyrazolo[3,4-B]Pyridin-3-yl)-N-Cyclopropyl-5-Methyl-6-Oxo-6,7-Dihydro-5H-Pyrrolo[2,3-D]Pyrimidine-5-Carboxamide] | C (Category C=SBP in SHRs>40 mmHg)
COc1ccc2c(-c3nc(N)c4c(n3)NC(=O)C4(C)C(=O)NC3CC3)nn(CCC(F)(F)C(F)(F)F)c2n1 (stereo not shown) [Example 178, 4-Amino-N-Cyclopropyl-2-(6-Methoxy-1-(3,3,4,4,4-Pentafluorobutyl)-1H-Pyrazolo[3,4-B]Pyridin-3-yl)-5-Methyl-6-Oxo-6,7-Dihydro-5H-Pyrrolo[2,3-D]Pyrimidine-5-Carboxamide] | A (Category A=SBP in SHRs<25 mmHg)
CC1(c2nnc(C(F)F)o2)C(=O)Nc2nc(-c3nn(CCC(F)(F)C(F)(F)F)c4ncccc34)nc(N)c21 (stereo not shown) [Example 212, 4-amino-5-[5-(difluoromethyl)-1,3,4-oxadiazol-2-yl]-5-methyl-2-[1-(3,3,4,4.4-pentafluorobutyl)-1H-pyrazolo[3,4-b]pyridin-3-yl]-5,7-dihydro-6H-pyrrolo(2,3-d]pyrimidin-6-one] | B (Category B=SBP in SHRs 25-40 mmHg)

Same assay, conditions: single oral dose 0.3 mpk P.O.

SMILES | Maximum peak decrease of systolic blood pressure (SBP) in SHR, Category
CC1(c2cn(CC3CC3)nn2)C(=O)Nc2nc(-c3nn(CCC(F)(F)F)c4ncccc34)nc(N)c21 (stereo not shown) [Example 180, 4-Amino-5-[1-(Cyclopropylmethyl)-1H-1,2,3-Triazol-4-yl]-5-Methyl-2-[1-(3,3,3-Trifluoropropyl)-1H-Pyrazolo[3,4-B]Pyridin-3-yl]-5,7-Dihydro-6H-Pyrrolo[2,3-D]Pyrimidin-6-One] | A (Category A=SBP in SHRs<25 mmHg)
CC1(C(=O)NC2CC2)C(=O)Nc2nc(-c3nn(CCC(F)(F)C(F)(F)F)c4nc(C5CC5)ccc34)nc(N)c21 (stereo not shown) [Example 223, 4-amino-N-cyclopropyl-2-[6-cyclopropyl-1-(3,3,4,4,4-pentafluorobutyl)-1H-pyrazolo[3,4-b]pyridin-3-yl]-5-methyl-6-oxo-6,7-dihydro-5H-pyrrolo[2,3-d]pyrimidine-5-carboxamide] | B (Category B=SBP in SHRs 25-40 mmHg)
CC1(c2nnco2)C(=O)Nc2nc(-c3nn(CCC(F)(F)C(F)(F)F)c4ncccc34)nc(N)c21 (stereo not shown) [Example 204, 4-amino-5-methyl-5-(1,3,4-oxadiazol-2-yl)-2-[1-(3,3,4,4,4-pentafluorobutyl)-1H-pyrazolo[3,4-b]pyridin-3-yl]-5,7-dihydro-6H-pyrrolo[2,3-d]pyrimidin-6-one] | B (Category B=SBP in SHRs 25-40 mmHg)
Cn1cc(NC(=O)C2(C)C(=O)Nc3nc(-c4nn(CCC(F)(F)C(F)(F)F)c5cc(Cl)ccc45)nc(N)c32)cn1 (stereo not shown) [Example 217, 4-amino-2-[6-chloro-1-(3,3,4,4,4-pentafluorobutyl)-1H-indazol-3-yl]-5-methyl-N-(1-methyl-1H-pyrazol-4-yl)-6-oxo-6,7-dihydro-5H-pyrrolo[2,3-d]pyrimidine-5-carboxamide] | C (Category C=SBP in SHRs>40 mmHg)
CC1(CC#N)C(=O)Nc2nc(-c3nn(CCC(F)(F)C(F)(F)F)c4cc(Cl)ccc34)nc(N)c21 (stereo not shown) [Example 175, {4-Amino-2-[6-Chloro-1-(3,3,4,4,4-Pentafluorobutyl)-1H-Indazol-3-yl]-5-Methyl-6-Oxo-6,7-Dihydro-5H-Pyrrolo[2,3-D]Pyrimidin-5-yl}Acetonitrile] | B (Category B=SBP in SHRs 25-40 mmHg)
CC1(C(N)=O)C(=O)Nc2nc(-c3nn(CCC(F)(F)C(F)(F)F)c4cc(Cl)ccc34)nc(N)c21 (single isomer, unassigned) [Example 159, 4-Amino-2-[6-Chloro-1-(3,3,4,4,4-Pentafluorobutyl)-1H-Indazol-3-yl]-5-Methyl-6-Oxo-6,7-Dihydro-5H-Pyrrolo[2,3-D]Pyrimidine-5-Carboxamide] | B (Category B=SBP in SHRs 25-40 mmHg)
CC1(C(=O)NC2CC2)C(=O)Nc2nc(-c3nn(CCC(F)(F)F)c4ncccc34)nc(N)c21 (stereo not shown) [Example 181, 4-Amino-N-Cyclopropyl-5-Methyl-6-Oxo-2-[1-(3,3,3-Trifluoropropyl)-1H-Pyrazolo[3,4-B]Pyridin-3-yl]-6,7-Dihydro-5H-Pyrrolo[2,3-D]Pyrimidine-5-Carboxamide] | B (Category B=SBP in SHRs 25-40 mmHg)
CC1(C(=O)Nc2ccccn2)C(=O)Nc2nc(-c3nn(CCCC(F)(F)F)c4ncccc34)nc(N)c21 (stereo not shown) [Example 226, 4-amino-5-methyl-6-oxo-N-pyridin-2-yl-2-[1-(4,4,4-trifluorobutyl)-1H-pyrazolo[3,4-b]pyridin-3-yl]-6,7-dihydro-5H-pyrrrolo[2,3-d]pyrimidine-5-carboxamide] | B (Category B=SBP in SHRs 25-40 mmHg)
CC1(C(=O)NC2CC2)C(=O)Nc2nc(-c3nn(CCC(F)(F)C(F)(F)F)c4cc(F)ccc34)nc(N)c21 (stereo not shown) [Example 195, 4-amino-N-cyclopropyl-2-[6-fluoro-1-(3,3,4,4,4-pentafluorobutyl)-1H-indazol-3-yl]-5-methyl-6-oxo-6,7-dihydro-5H-pyrrolo[2,3-d]pyrimidine-5-carboxamide] | C (Category C=SBP in SHRs>40 mmHg)
CNc1nc(-c2nn(CCC(F)(F)F)c3ncccc23)nc2c1C(C)(C(=O)NC1CC1)C(=O)N2 (stereo not shown) [Example 263, N-cyclopropyl-5-methyl-4-(methylamino)-6-oxo-2-[1-(3,3,3-trifluoropropyl)-1H-pyrazolo[3,4-b]pyridin-3-yl]-6,7-dihydro-5H-pyrrolo[2,3-d]pyrimidine-5-carboxamide] | A (Category A=SBP in SHRs<25 mmHg)
CC1(C(=O)NC2CC2)C(=O)Nc2nc(-c3nc(CCC(F)(F)F)n4ncccc34)nc(N)c21 (stereo not shown) [Example 256, 4-amino-H-cyclopropyl-5-methyl-6-oxo-2-[7-(3,3,3-trifluoropropyl)imidazo[1,5-b]pyridazin-5-yl]-6,7-dihydro-5H-pyrrolo[2,3-d]pyrimidine-5-carboxamide] | B (Category B=SBP in SHRs 25-40 mmHg)
Nc1nc(-c2nn(CCCC(F)(F)F)c3ncccc23)nc2c1C(C(=O)NC1CC1)(C1CC1)C(=O)N2 (stereo not shown) [Example 246, 4-amino-N,5-dicyclopropyl-6-oxo-2-[1-(4,4,4-trifluorobutyl)-1H-pyrazolo[3,4-b]pyridin-3-yl]-6,7-dihydro-5H-pyrrolo[2,3-d]pyrimidine-5-carboxamide] | C (Category C=SBP in SHRs>40 mmHg)
CC1(C(=O)Nc2cccnc2)C(=O)Nc2nc(-c3nn(CCCC(F)(F)F)c4ncccc34)nc(N)c21 (stereo not shown) [Example 227] | B (Category B=SBP in SHRs 25-40 mmHg)
CC1(C(=O)NC2CC2)C(=O)Nc2nc(-c3nn(CCC(F)F)c4ncccc34)nc(N)c21 (stereo not shown) [Example 238, 4-amino-N-cyclopropyl-2-[1-(3,3-difluoropropyl)-1H-pyrazolo[3,4-b]pyridin-3-yl]-5-methyl-6-oxo-6,7-dihydro-5H-pyrrolo[2,3-d]pyrimidine-5-carboxamide] | B (Category B=SBP in SHRs 25-40 mmHg)
CC1(c2nnc(C(F)(F)F)o2)C(=O)Nc2nc(-c3nn(CCC(F)(F)C(F)(F)F)c4ccncc34)nc(N)c21 (stereo not shown) [Example 203, 4-amino-5-methyl-2-[1-(3,3,4,4,4-pentafluorobutyl)-1H-pyrazolo[3,4-d]pyridin-3-yl]-5-[5-(trifluoromethyl)-1,3,4-oxadiazol-2-yl)-5,7-dihydro-6H-pyrrolo[2,3-d]pyrimidin-6-one] | C (Category C=SBP in SHRs>40 mmHg)
CNc1nc(-c2nn(CCC(F)(F)C(F)(F)F)c3ncccc23)nc2c1C(C)(c1ccccc1)C(=O)N2 (stereo not shown) [Example 186, 5-Methyl-4-(Methylamino)-2-[1-(3,3,4,4,4-Pentafluorobutyl)-1H-Pyrazolo[3,4-B]Pyridin-3-yl]-5-Phenyl-5,7-Dihydro-6H-Pyrrolo[2,3-D]Pyrimidin-6-One] | B (Category B=SBP in SHRs 25-40 mmHg)

Same assay, conditions: single oral dose 1 mpk P.O.

SMILES | Maximum peak decrease of systolic blood pressure (SBP) in SHR, Category
Cc1nc(C2(C)C(=O)Nc3nc(-c4nc(CCCC(F)(F)F)n5cc(Cl)ccc45)nc(N)c32)no1 (stereo not shown) [Example 249, 4-amino-2-[6-chloro-3-(4,4,4-trifluorobutyl)imidazo[1,5-a]pyridin-1-yl]-5-methyl-5-(5-methyl-1,2,4-oxadiazol-3-yl)-5,7-dihydro-6H-pyrrolo[2,3-d]pyrimidin-6-one] | A (Category A=SBP in SHRs<25 mmHg)
CC1(C(=O)NC2CC2)C(=O)Nc2nc(-c3nn(CCC(F)(F)F)c4nc(C#N)ccc34)nc(N)c21 (stereo not shown) [Example 221, 4-amino-2-[6-cyano-1-(3,3,3-trifluoropropyl)-1H-pyrazolo[3,4-b]pyridin-3-yl]-N-cyclopropyl-5-methyl-6-oxo-6,7-dihydro-5H-pyrrolo[2,3-d]pyrimidine-5-carboxamide] | C (Category C=SBP in SHRs>40 mmHg)
Cn1ccc(NC(=O)C2(C)C(=O)Nc3nc(-c4nn(CCC(F)(F)C(F)(F)F)c5ncccc45)nc(N)c32)n1 (stereo not shown) [Example 218, 4-amino-5-methyl-N-(1-methyl-1H-pyrazol-3-yl)-6-oxo-2-[1-(3,3,4,4,4-pentafluorobutyl)-1H-pyrazolo[3,4-b]pyridin-3-yl]-6,7-dihydro-5H-pyrrolo[2,3-d]pyrimidine-5-carboxamide] | C (Category C=SBP in SHRs>40 mmHg)
